PMC9428674 (RSC Chemical Biology, 2022)

Key:
NTAQ1 = test: Western blot verification of NTAQ1 degradation; conditions: 100 nM MLN4924 pre-treatment for 2 hours
[1] = cited from earlier work

SMILES | effect of pre-treatment on NTAQ1 downregulation by EM12-FS (NTAQ1) | human plasma half-life [1] [h]
NS(=O)(=O)OC[C@@H]1C[C@@H](n2ccc3c(N[C@H]4CCc5ccccc54)ncnc32)C[C@@H]1O [MLN4924] | rescued downregulation of NTAQ1 by EM12-FS | –
Nc1cccc2c1CN(C1CCC(=O)NC1=O)C2=O (stereo not shown) [lenalidomide] | – | 4.73
Nc1cccc2c1C(=O)N(C1CCC(=O)NC1=O)C2=O (stereo not shown) [pomalidomide] | – | 2.65
O=C1CCC(N2C(=O)c3ccccc3C2=O)C(=O)N1 (stereo not shown) [thalidomide] | – | 0.367
